Test results taken from patent US20170362184A1, “PRO-SURVIVAL COMPOUNDS” (University Court of The University of Glasgow, priority 2014, published 2017).

Columns and labels:
[1] = test system: pMLC in iPSC (cell line NMF-iPS6); assay: western blot of phosphorylated myosin light chain (pMLC) after dissociation; assay type: cell-based, human; conditions: 15 mins post-dissociation, compared with untreated cells
Description: Protein samples were taken from iPSC (cell line NMF-iPS6) that were treated with SC332, Y27632 or had no treatment (control) before being dissociated. Samples were harvested 15 mins, 30 mins, 45 mins, 1 hr, 2 hr and 4 hr post dissociation. Western blot analysis was performed. […] Data shown as mean±SEM, n=3.

[2] = test system: hPSC (H1 hESC); assay: cytogenetic stability (karyotype) after 30 consecutive passages; assay type: cell-based, human; conditions: H1 hESC treated for 30 consecutive passages
Excerpt: In addition to this, long term exposure to compound SC332 had no detrimental effect on the karyotypic stability of hPSC (FIGS. 2 and 3).

[3] = test system: hESC line RC9; assay: cell survival 24 hrs post enzymatic passage; assay type: cell-based, human; conditions: enzymatically passaged, 24 hrs post passage, mean ±SEM, n=3
Description: (§1) Enzymatic passage of hPSC methodology 1. 24 hrs prior to passage (around 70-80% confluence), supply 1 well of near confluent hPSC with 2 ml StemPro supplemented with 30 μM SC332 (done during usual daily feed). 2. At point of passage, remove media and wash cells 1× in PBS (−/−). 3. Add 1.5 ml of TrypLE Select (1×) to well and return to incubator for 2-5 mins to dissociate to single cells. 4. Add 1.5 ml of StemPro to deactivate TrypLE Select and pipette gently using a 5 ml serological pipette (to dissociate any remaining clumps). 5. Transfer cells to 15 ml conical bottomed tube and centrifuge for 3 mins at 300 g. 6. Aspirate as much supernatant as possible and resuspend cell pellet by gently flicking. 7. Resuspend cells in PBS (−/−) and centrifuge again for 3 mins at 300 g. 8. Aspirate PBS (−/−) and resuspend cells in 1 ml of StemPro. Gently pipette using serological pipette. 9. Perform a cell count and replate hPSC at a density of 5×10^5 cells per well of a pre-coated 6 well plate. Top up to 2 mls total with StemPro supplemented with 30 μM SC332. Wells are pre-coated with 0.3 mg/ml fibronectin (recombinant vitronectin fragment can also be used). 10. Return cells to incubator and supply with fresh StemPro on a daily basis. 11. 24 hrs prior to subsequent passages (around 70-80% confluence), supply 1 well of PSC with 2 ml StemPro supplemented with 30 μM SC332 (done during usual daily feed). NB SC332 can be used transiently as described above or can be added to culture medium continuously (still at 30 μM).
(§2) Human pluripotent stem cells (hPSC) were either treated with SC332, Y27632, or left untreated, before being enzymatically passaged. […] In particular, the hESC lines H1, H9 and RC9 and the hiPSC NMF-iPSC6 had cell survival of 72% (±2.9), 73% (±2.8), 69% (±1.9) and 74% (±2.6) respectively when treated with SC332. […] Data shown is the mean survival ±SEM, n=3.

[4] = test system: hESC line H1; assay: cell survival 24 hrs post enzymatic passage; assay type: cell-based, human; conditions: enzymatically passaged, 24 hrs post passage, mean ±SEM, n=3
Description: as §1, §2

[5] = test system: hiPSC NMF-iPSC6; assay: cell survival 24 hrs post enzymatic passage; assay type: cell-based, human; conditions: hiPSC NMF-iPSC6, enzymatically passaged, 24 hrs post passage, mean ±SEM, n=3
Description: as §1, §2

[6] = test system: hESC line H9; assay: cell survival 24 hrs post enzymatic passage; assay type: cell-based, human; conditions: enzymatically passaged, 24 hrs post passage, mean ±SEM, n=3
Description: as §1, §2

[7] = target: PRK2 (Homo sapiens, UniProt Q16513); assay: radioactive filter-binding kinase assay (33P-ATP); assay type: biochemical
Description: (§3) This screen utilises a radioactive filter-binding assay (33P-ATP) to assess the effect of compounds on kinase activity. Results confirmed that SC332 had no inhibitory effect on ROCK2 at a concentration of 10 μM (96% activity. SC332 also had very limited effect on the closely related PRK2, showing 76% and 98% activity when used at 10 μM and 30 μM respectively (FIG. 6).

[8] = target: ROCK2 (Rattus norvegicus, UniProt Q62868); assay: radioactive filter-binding kinase assay (33P-ATP); assay type: biochemical
Description: as §3

[9] = test system: hPSC (hESC cell line H1 and NMF-iPS6); assay: passive differentiation into three germ layers after 30 passages; assay type: cell-based, human; conditions: after 30 consecutive enzymatic passages
Excerpt: HPSC treated for 30 passages with SC332 or Y27632 were passively differentiated for 2 weeks in suspension culture, followed by 2 weeks adherent culture, fixed and stained for markers of the three germ layers. Control cells that had been mechanically passaged and unexposed to any survival compound were also differentiated and stained in the same way. PAX6 is stained in the left hand column, AFP in the centre column and SMA in the right hand column. All cells were co-stained with DAPI. Scale bar represents 100 μm.
The differentiation capacity of hPSC after treatment with SC332 was also assessed. HPSC (hESC cell line H1 and NMF-iPS6) that had been enzymatically passaged with either SC332 or Y27632 for 30 consecutive passages were passively differentiated alongside mechanically maintained cells using a mixture of embryoid body based suspension culture and adherent culture. Differentiated cells were subsequently fixed and stained for markers from each of the three germ layers. […] As expected, untreated mechanically passaged control cells, included as a positive control, were also able to differentiate into each of the three germ layers (FIG. 5).

PRK2, sequence (Q16513 501-984 limits assumed, species assumed): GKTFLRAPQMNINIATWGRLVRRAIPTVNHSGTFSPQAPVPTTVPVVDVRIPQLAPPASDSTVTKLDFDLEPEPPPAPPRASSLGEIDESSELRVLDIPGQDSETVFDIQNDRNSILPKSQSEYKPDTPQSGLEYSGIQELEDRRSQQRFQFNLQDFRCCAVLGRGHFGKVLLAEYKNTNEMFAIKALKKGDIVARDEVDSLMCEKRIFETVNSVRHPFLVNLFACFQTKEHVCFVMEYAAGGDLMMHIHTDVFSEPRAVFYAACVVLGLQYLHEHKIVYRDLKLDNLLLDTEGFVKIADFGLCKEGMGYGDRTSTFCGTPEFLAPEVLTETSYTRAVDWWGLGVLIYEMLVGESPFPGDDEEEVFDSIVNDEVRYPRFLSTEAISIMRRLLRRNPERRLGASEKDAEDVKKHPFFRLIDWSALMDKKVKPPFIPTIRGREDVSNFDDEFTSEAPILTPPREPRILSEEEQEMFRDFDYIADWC
ROCK2, sequence (Q62868 2-543 limits assumed): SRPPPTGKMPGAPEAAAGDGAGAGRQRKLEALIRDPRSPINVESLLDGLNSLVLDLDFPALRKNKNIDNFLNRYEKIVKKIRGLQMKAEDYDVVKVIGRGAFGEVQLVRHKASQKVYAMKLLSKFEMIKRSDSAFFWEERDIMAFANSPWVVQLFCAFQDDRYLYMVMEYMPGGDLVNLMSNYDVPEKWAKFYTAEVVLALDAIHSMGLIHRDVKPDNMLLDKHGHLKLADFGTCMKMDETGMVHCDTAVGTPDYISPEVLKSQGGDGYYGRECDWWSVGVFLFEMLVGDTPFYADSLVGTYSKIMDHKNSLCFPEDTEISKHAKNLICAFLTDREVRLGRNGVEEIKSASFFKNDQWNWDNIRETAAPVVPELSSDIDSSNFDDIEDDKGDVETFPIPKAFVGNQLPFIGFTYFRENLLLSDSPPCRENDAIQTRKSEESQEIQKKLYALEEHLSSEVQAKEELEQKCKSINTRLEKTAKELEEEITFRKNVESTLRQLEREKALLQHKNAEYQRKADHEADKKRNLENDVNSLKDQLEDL

Row | Structure (SMILES) | levels of pMLC relative to α-tubulin [1] | cytogenetic stability (karyotype) [2] | cell survival [3] [%] | cell survival [4] [%] | cell survival [5] [%] | cell survival [6] [%] | PRK2 activity ([7]; 10 μM) [% activity] | PRK2 activity ([7]; 30 μM) [% activity] | inhibition of PRK2 (in words) ([7]; 30 μM) | ROCK2 activity ([8]; 10 μM) [% activity] | inhibition of ROCK2 (in words) ([8]; 30 μM) | differentiation towards mesoderm (SMA), endoderm (AFP) or ectoderm (PAX6) [9]
1 | Cc1cc(NC(=O)Cn2c(NCc3ccccc3)nc3ccccc32)no1 [SC332, 2-(2-(benzylamino)-1H-benzo[d]imidazol-1-yl)-N-(5-methylisoxazol-3-yl)acetamide] | high levels of pMLC equivalent to those in untreated cells | karyotypically normal (46, XY) | 69 | 72 | 74 | 73 | 76 | 98 | did not inhibit | 96 | did not inhibit | did not block the differentiation
2 | C[C@@H](N)[C@H]1CC[C@H](C(=O)Nc2ccncc2)CC1 [Y27632, reference compound] | blocked the increase | karyotypically normal (46, XY) | 71 | 72 | 74 | 73 |  |  |  |  |  | did not block the differentiation
